From PubChem BioAssay (NCI) come the findings set out here.

The structures appear in SMILES notation.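 Assay format: 96-well plates, 48-hour exposure. GI50 marks 50% less growth. TGI marks complete inhibition of growth.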

Some test systems named below: A549 NSCLC; MDA-MB-435; SW-620 colon; OVCAR-4 ovarian; HT29 colon; CCRF-CEM leukemia; HOP-92 NSCLC; UO-31 renal; SK-OV-3 ovarian; SR leukemia.
Holding throughout (assay): inhibition of tumour cell growth, NCI panel, 48 h

Consider `N#CC(C#N)SCc1ccccc1`, for which the TGI was greater than 100 µM with A549 NSCLC; 35.7 µM with MDA-MB-435; greater than 100 µM in the test on SW-620 colon; greater than 100 µM in the test with OVCAR-4 ovarian; 62.8 µM with HT29 colon; greater than 87 µM in the test on CCRF-CEM leukemia. The TGI with HOP-92 NSCLC is greater than 87.4 µM; with UO-31 renal, greater than 100 µM; with SK-OV-3 ovarian, greater than 49 µM.
As to `CC(=O)c1cccc(N(/C=C/C(=O)C(F)(F)F)CC(=O)c2ccc(Cl)cc2)c1`, the GI50 in the test on A549 NSCLC, in the test on MDA-MB-435, in the test on SW-620 colon, in the test with OVCAR-4 ovarian, in the test on HT29 colon and with CCRF-CEM leukemia was greater than 100 µM in each case. For the same compound, the GI50 in the test on HOP-92 NSCLC, with UO-31 renal and in the test on SK-OV-3 ovarian was greater than 100 µM each time. The TGI with A549 NSCLC, in the test on MDA-MB-435, with SW-620 colon, in the test with OVCAR-4 ovarian, in the test with HT29 colon and with CCRF-CEM leukemia was greater than 100 µM each time. Besides, the TGI with HOP-92 NSCLC, in the test on UO-31 renal and in the test with SK-OV-3 ovarian was greater than 100 µM each time.
Regarding `C/C(=N/N(C=O)C[n+]1ccccc1)C(CN(CC(C)C)CC(C)C)C(=O)Nc1ccc(C)cc1C` (stereo not drawn), the TGI in the test with A549 NSCLC, in the test on SW-620 colon, in the test on SR leukemia, with OVCAR-4 ovarian, in the test on HT29 colon and with CCRF-CEM leukemia was greater than 100 µM each time. Moreover, the TGI in the test with HOP-92 NSCLC is greater than 100 µM; in the test with UO-31 renal it was 84.3 µM; with SK-OV-3 ovarian it was greater than 100 µM.
`NS(=O)(=O)c1ccc(N2Cc3cc(Cl)ccc3OC3=C2C(=O)N(CC2CCCCC2)C3=O)cc1`: the GI50 with A549 NSCLC is 2.13 µM; in the test on MDA-MB-435, 0.903 µM; with SW-620 colon it was 0.202 µM; in the test on SR leukemia, 0.284 µM; in the test with OVCAR-4 ovarian, 0.897 µM; in the test on HT29 colon, 0.392 µM. Also, the GI50 was 1.31 µM in the test with HOP-92 NSCLC, 1.1 µM in the test on UO-31 renal and 2.07 µM with SK-OV-3 ovarian. In addition, the TGI in the test on A549 NSCLC was determined as 3.99 µM; with MDA-MB-435, 2.23 µM; in the test with SW-620 colon it was 0.445 µM; with SR leukemia, 0.839 µM; in the test on OVCAR-4 ovarian it was 2.46 µM; in the test with HT29 colon, 1.1 µM. The TGI in the test on HOP-92 NSCLC worked out at 2.67 µM; in the test with UO-31 renal, 2.32 µM; with SK-OV-3 ovarian, 4.26 µM.
On to `CSc1ccc(C2=Nn3c(nnc3-c3ccc(F)c(Cl)c3)SC2)cc1`, for which the GI50 with A549 NSCLC is 12.5 µM; in the test on MDA-MB-435 it was 1.5 µM; in the test with SW-620 colon it was 11.6 µM; in the test on OVCAR-4 ovarian, 23.6 µM; in the test on HT29 colon it was 5.73 µM; in the test with CCRF-CEM leukemia, 11.1 µM. In addition, the GI50 is 4 µM in the test with HOP-92 NSCLC, 16.5 µM in the test with UO-31 renal and 13.5 µM with SK-OV-3 ovarian. Further, the TGI with A549 NSCLC was 29.7 µM; in the test on MDA-MB-435, 5.21 µM; in the test with SW-620 colon it was greater than 100 µM; in the test on OVCAR-4 ovarian, 85.1 µM; in the test on HT29 colon, 29.7 µM; with CCRF-CEM leukemia, greater than 100 µM. The TGI amounted to 14.8 µM in the test on HOP-92 NSCLC, 43.7 µM with UO-31 renal and 41.9 µM with SK-OV-3 ovarian.
Consider `C=C1C(=O)O[C@@H]2C[C@@]3(C)CC(=O)C=C(C)[C@@H]3C[C@H]12`, for which the TGI with A549 NSCLC is greater than 100 µM; in the test with MDA-MB-435, 30.5 µM; in the test on SW-620 colon, 22.6 µM; in the test on OVCAR-4 ovarian it was 23.2 µM; with HT29 colon, 24.6 µM; in the test with CCRF-CEM leukemia it was greater than 100 µM. Moreover, the results for the TGI in the test with HOP-92 NSCLC, with UO-31 renal and in the test on SK-OV-3 ovarian were 55 µM, 24.1 µM and greater than 100 µM, respectively.
For `O=c1nc(-c2ccccc2)c2c3c(cccn13)CCC2`, the TGI in the test on A549 NSCLC, with SW-620 colon, in the test with SR leukemia, in the test on OVCAR-4 ovarian, in the test with HT29 colon and in the test with CCRF-CEM leukemia was greater than 100 µM in each case. Moreover, the TGI with HOP-92 NSCLC, in the test on UO-31 renal and in the test on SK-OV-3 ovarian was greater than 100 µM throughout.
Regarding `CCN(c1ccc(CO)c(Cl)c1)C(C)c1ccc(F)cc1` (stereo not drawn), the GI50 with A549 NSCLC was 13.1 µM; in the test on MDA-MB-435, 17.3 µM; with SW-620 colon it was 14.1 µM; with SR leukemia, 19.8 µM; in the test with OVCAR-4 ovarian, 7.97 µM; in the test on HT29 colon it was 15.5 µM. Moreover, the GI50 was 18 µM with CCRF-CEM leukemia, 15.3 µM in the test on UO-31 renal and 15.7 µM in the test on SK-OV-3 ovarian. Moreover, the TGI was 27.9 µM with A549 NSCLC; 32.5 µM in the test with MDA-MB-435; 30.2 µM in the test with SW-620 colon; 43.1 µM in the test with SR leukemia; 20.7 µM with OVCAR-4 ovarian; 30 µM in the test with HT29 colon. Further, the TGI in the test on CCRF-CEM leukemia came to 41.2 µM; with UO-31 renal it was 29.1 µM; with SK-OV-3 ovarian it was 29.2 µM.
Turning to `Clc1ccccc1NN(Cc1ccccn1)c1ccccc1Cl`, the TGI is 37.2 µM in the test on A549 NSCLC; 34.9 µM in the test on MDA-MB-435; 37.7 µM in the test on SW-620 colon; 34.1 µM with SR leukemia; 37.2 µM with OVCAR-4 ovarian; 29.4 µM in the test on HT29 colon. Further, the figures for the TGI in the test with HOP-92 NSCLC, in the test on UO-31 renal and in the test on SK-OV-3 ovarian were 30.5 µM, 34.8 µM and 94.9 µM, respectively.
On to `COc1cc2cc(Oc3ccc(NC(=O)c4cccc(C(F)(F)F)c4)cc3)c(C)nc2cc1OC`, for which the GI50 was 4.28 µM in the test on A549 NSCLC; 5.39 µM in the test on MDA-MB-435; 10.2 µM in the test on SW-620 colon; 3.25 µM in the test on SR leukemia; 3.68 µM with OVCAR-4 ovarian; 6.65 µM in the test on HT29 colon. Moreover, the GI50 with HOP-92 NSCLC is 3.08 µM; in the test with UO-31 renal it was 4.59 µM; in the test with SK-OV-3 ovarian it was greater than 100 µM. The TGI in the test with A549 NSCLC, with MDA-MB-435, with SW-620 colon, in the test with SR leukemia, with OVCAR-4 ovarian and in the test with HT29 colon was greater than 100 µM each time. In addition, the values for the TGI in the test with HOP-92 NSCLC, with UO-31 renal and in the test with SK-OV-3 ovarian were 33.2 µM, greater than 100 µM and greater than 100 µM, respectively.
For the compound `CC(CO)[C@H]1OC(=O)C=C2[C@@]13O[C@@H]3[C@H]1OC(=O)[C@@]3(C)[C@H]4O[C@H]4C[C@@]2(C)[C@@H]13` (stereo partly drawn), the TGI is greater than 39.8 µM with A549 NSCLC; 18.4 µM with MDA-MB-435; greater than 100 µM in the test with SW-620 colon; 0.982 µM in the test on SR leukemia; greater than 24.3 µM in the test with OVCAR-4 ovarian; 20.7 µM in the test with HT29 colon. The TGI was greater than 26.9 µM with HOP-92 NSCLC, 6.41 µM in the test on UO-31 renal and greater than 57 µM with SK-OV-3 ovarian.
For `O=C(CCc1nc(=S)[nH][nH]1)NC12CC3CC(CC(C3)C1)C2`, the TGI in the test on A549 NSCLC, in the test on SW-620 colon, in the test with SR leukemia, with OVCAR-4 ovarian, in the test on HT29 colon and in the test with CCRF-CEM leukemia was greater than 100 µM each time. Further, the TGI with HOP-92 NSCLC, in the test with UO-31 renal and with SK-OV-3 ovarian was greater than 100 µM each time.
For the compound `O=C1c2ccccc2N2OC3(N4CCCC4)CCCC3C12c1ccccc1` (stereo not drawn), the TGI with A549 NSCLC, with SW-620 colon, with SR leukemia, with OVCAR-4 ovarian, in the test with HT29 colon and in the test with CCRF-CEM leukemia was greater than 100 µM throughout. In addition, the TGI in the test with HOP-92 NSCLC, in the test with UO-31 renal and in the test on SK-OV-3 ovarian was greater than 100 µM in each case.
Take `COc1ccc(C(C2=C(C)C(=O)c3ccccc3C2=O)c2ccc(C(C)C)cc(=O)c2O)cc1` (stereo not drawn): the TGI in the test on A549 NSCLC is 13.4 µM; in the test on SW-620 colon, greater than 100 µM; in the test on SR leukemia it was 21.3 µM; with OVCAR-4 ovarian it was greater than 100 µM; in the test with HT29 colon, 35.3 µM; with CCRF-CEM leukemia it was greater than 100 µM. The TGI turned out to be 10.3 µM in the test with HOP-92 NSCLC, 5.12 µM with UO-31 renal and 14.6 µM in the test on SK-OV-3 ovarian.
`CC1(C)C(=O)C(O)=CC2C1=CCC1C2(C)C(=O)CC2(C)C(C(C)(O)C(=O)CC(O)C(C)(C)O)C(O)CC12C` (stereo not drawn): the TGI is greater than 74.1 µM with A549 NSCLC; greater than 50.7 µM in the test on SW-620 colon; 25.3 µM in the test on SR leukemia; 11.8 µM in the test with OVCAR-4 ovarian; greater than 64.5 µM in the test with HT29 colon; 12 µM with CCRF-CEM leukemia. In addition, the TGI in the test on HOP-92 NSCLC came to 4.56 µM; in the test on UO-31 renal, 4.49 µM; with SK-OV-3 ovarian, 28.9 µM.
`COc1ccc(-n2nnc3c(sc4ccccc43)c2=O)cc1`: in the test with MDA-MB-435, the GI50 was greater than 100 µM and the TGI is greater than 100 µM. In the test with SW-620 colon, the GI50 was greater than 100 µM and the TGI is greater than 100 µM.
For `Cc1nc2c(n1CC(C)(C)C)C(=O)c1ccccc1C2=O`, the TGI in the test on A549 NSCLC, with SW-620 colon, in the test on SR leukemia, with OVCAR-4 ovarian, in the test on HT29 colon and in the test on CCRF-CEM leukemia was greater than 100 µM in each case. The TGI in the test with HOP-92 NSCLC, in the test with UO-31 renal and with SK-OV-3 ovarian was greater than 100 µM in each case.
